Experimental data: paper PMC10120512, “Benzenesulfonamide derivatives as Vibrio cholerae carbonic anhydrases inhibitors: a computational-aided insight in the structural rigidity-activity relationships” (Journal of Enzyme Inhibition and Medicinal Chemistry, 2023)

Legend:
VchαCA [1] = molecular target: VchαCA (Vibrio cholerae, UniProt Q9KMP6); assay: biochemical; format: biochemical
VchαCA [2] = assay: biochemical; format: biochemical; settings: for SI [ KI hCA I/KI VchαCA ]: selectivity index hCA I over VchαCA; for SI [ KI hCA II/KI VchαCA ]: selectivity index hCA II over VchαCA
VchβCA = VchβCA (Vibrio cholerae, UniProt A0A086SLX8); assay: biochemical
Sequence of VchβCA (A0A086SLX8 entry or part of it): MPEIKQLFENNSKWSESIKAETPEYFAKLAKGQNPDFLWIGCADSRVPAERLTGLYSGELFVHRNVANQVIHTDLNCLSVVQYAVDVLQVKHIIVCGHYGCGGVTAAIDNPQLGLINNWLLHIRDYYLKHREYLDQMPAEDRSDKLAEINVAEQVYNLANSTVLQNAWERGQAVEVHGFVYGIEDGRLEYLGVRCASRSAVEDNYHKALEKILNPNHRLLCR

VchγCA = VchγCA (Vibrio cholerae, UniProt Q9KVT1); assay: biochemical
Sequence of VchγCA (Q9KVT1 1-184): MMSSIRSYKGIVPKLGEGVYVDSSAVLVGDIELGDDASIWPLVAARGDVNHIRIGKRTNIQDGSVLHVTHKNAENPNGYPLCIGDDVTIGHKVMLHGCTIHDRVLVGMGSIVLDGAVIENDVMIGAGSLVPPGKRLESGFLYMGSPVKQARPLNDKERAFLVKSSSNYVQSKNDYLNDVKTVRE

[3] = system: clinical isolates of V. cholerae (SI-Vc22, SI-Vc71, SI-Vc912); assay: Direct antibacterial activity, agar diffusion method; format: cell-based; settings: for inhibition zone diameter: all the isolates, data not shown; for growth inhibition against at least one of the clinical isolates: 2 μL spot, 37 °C, 24 h; as to all read-outs here: test concentration or dose not given here

Sequence of VchαCA (Vibrio cholerae, UniProt Q9KMP6) (Q9KMP6 entry or part of it): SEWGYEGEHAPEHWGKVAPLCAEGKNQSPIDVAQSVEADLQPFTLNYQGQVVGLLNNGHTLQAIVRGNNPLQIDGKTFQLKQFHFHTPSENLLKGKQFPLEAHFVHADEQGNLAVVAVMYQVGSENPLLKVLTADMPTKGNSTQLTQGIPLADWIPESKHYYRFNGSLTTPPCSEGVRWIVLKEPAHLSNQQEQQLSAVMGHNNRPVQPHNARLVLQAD

Row | SMILES | Ki (VchαCA [1]) [µM] | SI [ KI hCA I/KI VchαCA ] (VchαCA [2]) | SI [ KI hCA II/KI VchαCA ] (VchαCA [2]) | Ki (VchβCA) [µM] | Ki (VchγCA) [µM] | inhibition zone diameter [3] | growth inhibition against at least one of the clinical isolates [3] | SI, selectivity with respect to human isoenzymes (VchαCA [2]; VchαCA versus human isoenzymes (abstract))
1 | NS(=O)(=O)c1ccc(NCCNc2ccccc2Br)cc1 [5a] | 0.0641 | 14.7 | 14.2 | 89.2 |  |  |  | 
2 | NS(=O)(=O)c1ccc(NC(=O)CNc2ccccc2)cc1 [1b] | 0.053 | 1.2 | 0.1 | 17.7 | 49.4 |  |  | 
3 | CCCCNCCNc1cccc(S(N)(=O)=O)c1 [15a] | 0.0803 | 1.9 | 0.5 | 56.5 | 69.3 |  |  | 
4 | NS(=O)(=O)c1cccc(N2CCN(c3ccccc3)C2=O)c1 [11c] | 0.0503 | 1.2 | 0.6 | 100 | 6.5 |  |  | 
5 | NS(=O)(=O)c1ccc(N2CCN(c3ccccc3Br)C2=O)cc1 [5c] | 0.0472 | 0.1 | 0.1 |  | 73.2 |  |  | 
6 | Cc1ccc(NCCNc2ccc(S(N)(=O)=O)cc2)cc1 [2a] | 0.0431 | 0.2 | 0.1 | 16.8 | 39.9 |  |  | 
7 | NS(=O)(=O)c1ccc(NCCNc2ccc(Cl)cc2)cc1 [3a] | 0.0274 | 1.4 | 1.7 | 53.8 |  |  |  | 
8 | NS(=O)(=O)c1cccc(NC(=O)CNc2ccc(Cl)cc2)c1 [13b] | 0.0755 | 3.6 | 0.4 | 70.4 |  |  |  | 
9 | NS(=O)(=O)c1ccc(N2CCN(c3ccccc3F)C2=O)cc1 [6c] | 0.0097 |  |  |  | 82.8 | 3–5 mm |  | 
10 | NS(=O)(=O)c1cccc(NCCNc2ccccc2)c1 [11a] | 0.063 | 0.1 | 0.1 | 15.6 |  | 3–5 mm | moderate growth inhibition | 
11 | NS(=O)(=O)c1cccc(NCCNc2ccc(Cl)cc2)c1 [13a] | 0.0756 | 4.6 | 0.2 | 59.2 | 5.6 |  | moderate growth inhibition | 
12 | Cc1cccc(N2CCN(c3ccc(S(N)(=O)=O)cc3)C2=O)n1 [7c] | 0.011 | 5.0 | 0.7 | 122 | 80.2 |  |  | 
13 | NS(=O)(=O)c1cccc(N2CCN(c3ccc(Cl)cc3)C2=O)c1 [13c] | 0.004 | 7.6 | 21.0 | 122 | 73.7 |  |  | 
14 | NS(=O)(=O)c1ccc(NC(=O)CNCc2ccccc2)cc1 [8b] | 0.0614 |  |  | 53.2 |  |  |  | 
15 | CC(C)NCCNc1ccc(S(N)(=O)=O)cc1 [10a] | 0.0075 | 119.5 | 45.0 | 12.5 | 92.9 |  |  | 
16 | NS(=O)(=O)c1cccc(NC(=O)CNc2ccccc2Br)c1 [14b] | 0.0723 | 0.3 |  | 16 | 72.4 |  |  | 
17 | NS(=O)(=O)c1ccc(N2CCN(c3ccccc3)C2=O)cc1 [1c] | 0.0071 | 7.7 | 0.6 | 134 | 5 |  |  | 
18 | NS(=O)(=O)c1ccc(NCCNc2ccccc2F)cc1 [6a] | 0.0362 | 2.1 | 0.2 | 101 | 73.7 |  |  | 
19 | NS(=O)(=O)c1ccc(NC(=O)CNc2ccccc2F)cc1 [6b] | 0.079 | 0.2 | 0.1 | 51.4 | 93.1 |  |  | 
20 | CCCCN1CCN(c2ccc(S(N)(=O)=O)cc2)C1=O [9c] | 0.0047 | 128.4 | 90.0 | 113 | 54.9 | 3–5 mm | moderate growth inhibition | ≥ 90
21 | Cc1cccc(NCC(=O)Nc2ccc(S(N)(=O)=O)cc2)n1 [7b] | 0.017 | 0.9 | 0.3 | 73.1 | 59.8 |  |  | 
22 | NS(=O)(=O)c1ccc(NCCNCc2ccccc2)cc1 [8a] | 0.023 | 7.4 | 1.4 | 12.4 | 52.7 |  |  | 
23 | NS(=O)(=O)c1ccc(N2CCN(c3ccc(Cl)cc3)C2=O)cc1 [3c] | 0.047 | 4.1 | 1.0 | 106 | 50.2 |  |  | 

Row | SMILES | Ki (VchαCA [1]) [µM] | SI [ KI hCA I/KI VchαCA ] (VchαCA [2]) | SI [ KI hCA II/KI VchαCA ] (VchαCA [2]) | Ki (VchβCA) [µM] | Ki (VchγCA) [µM] | inhibition zone diameter [3] | growth inhibition against at least one of the clinical isolates [3] | SI, selectivity with respect to human isoenzymes (VchαCA [2]; VchαCA versus human isoenzymes (abstract))
24 | CCCCNCC(=O)Nc1cccc(S(N)(=O)=O)c1 [15b] | 0.0664 | 1.3 | 0.6 | 116 | 73.6 |  |  | 
25 | CC(C)NCC(=O)Nc1ccc(S(N)(=O)=O)cc1 [10b] | 0.0362 | 2.5 | 0.7 | 4 | 58.3 |  |  | 
26 | NS(=O)(=O)c1cccc(NCCNc2ccccc2Br)c1 [14a] | 0.0635 | 0.1 | 0.1 | 97 |  |  |  | 
27 | Cc1ccc(N2CCN(c3ccc(S(N)(=O)=O)cc3)C2=O)cc1 [2c] | 0.027 | 0.60 | 0.14 | 83.6 | 3.5 |  |  | 
28 | NS(=O)(=O)c1cccc(NC(=O)CNc2ccccc2)c1 [11b] | 0.0594 | 7.5 | 0.6 | 132 |  |  | moderate growth inhibition | 
29 | NS(=O)(=O)c1ccc(NC(=O)CNc2ccc(Cl)cc2)cc1 [3b] | 0.066 | 0.3 | 0.1 | 116 | 86.9 |  | moderate growth inhibition | 
30 | CC(C)N1CCN(c2ccc(S(N)(=O)=O)cc2)C1=O [10c] | 0.0098 | 0.9 | 0.3 | 113 | 64.5 |  |  | 
31 | Cc1ccc(NCC(=O)Nc2ccc(S(N)(=O)=O)cc2)cc1 [2b] | 0.0431 | 0.2 | 1.9 | 97 | 82.6 |  |  | 
32 | NS(=O)(=O)c1ccc(NCCNc2ccccc2)cc1 [1a] | 0.0781 | 0.3 | 0.1 | 18.3 |  |  |  | 
33 | NS(=O)(=O)c1ccc(NC(=O)CNc2ccccc2Br)cc1 [5b] | 0.062 |  |  | 47.4 | 87.7 |  |  | 
34 | Cc1ccc(NCCNc2cccc(S(N)(=O)=O)c2)cc1 [12a] | 0.0441 |  |  | 173 | 79 |  |  | 
35 | Cc1ccc(N2CCN(c3cccc(S(N)(=O)=O)c3)C2=O)cc1 [12c] | 0.011 |  |  |  | 76 |  |  | 
36 | NS(=O)(=O)c1ccc(NC(=O)CNc2ccc(I)cc2)cc1 [4b] | 0.0228 |  |  | 157 | 72.5 |  |  | 
37 | NS(=O)(=O)c1ccc(N2CCN(Cc3ccccc3)C2=O)cc1 [8c] | 0.0026 | 3.1 | 1.2 | 127 | 8.1 |  |  | 
38 | CCCCNCCNc1ccc(S(N)(=O)=O)cc1 [9a] | 0.0788 | 6.8 | 1.0 | 115 |  | 3–5 mm |  | 
39 | Cc1ccc(NCC(=O)Nc2cccc(S(N)(=O)=O)c2)cc1 [12b] | 0.0731 | 1.2 | 0.1 | 121 | 9.6 |  |  | 
40 | NS(=O)(=O)c1ccc(NCCNc2ccc(I)cc2)cc1 [4a] | 0.065 | 12.1 | 9.9 | 136 |  |  |  | 
41 | NS(=O)(=O)c1ccc(N2CCN(c3ccc(I)cc3)C2=O)cc1 [4c] | 0.013 | 7.1 | 1.0 | 116 | 72.2 | 3–5 mm |  | 
42 | CCCCN1CCN(c2cccc(S(N)(=O)=O)c2)C1=O [15c] | 0.047 | 0.8 | 0.2 | 122 | 8 |  |  | 
43 | NS(=O)(=O)c1cccc(N2CCN(c3ccccc3Br)C2=O)c1 [14c] | 0.01 | 0.8 | 5.4 | 132 | 81.3 |  |  | 
44 | CCCCNCC(=O)Nc1ccc(S(N)(=O)=O)cc1 [9b] | 0.0786 |  |  | 141 |  |  | moderate growth inhibition | 
45 | Cc1cccc(NCCNc2ccc(S(N)(=O)=O)cc2)n1 [7a] | 0.037 | 2.4 | 0.9 | 19 | 69.8 |  |  | 
